ChEMBL document CHEMBL1135615

Experiments:
[1] = target: 4-aminobutyrate aminotransferase, mitochondrial (Homo sapiens) (UniProt P80404); assay: Time dependent inactivation of Gamma-amino-N-butyrate transaminase; conditions: Cavia porcellus
[2] = Ratio of kinact to that of KI.

4-aminobutyrate aminotransferase, mitochondrial (Homo sapiens), sequence (P80404 whole entry): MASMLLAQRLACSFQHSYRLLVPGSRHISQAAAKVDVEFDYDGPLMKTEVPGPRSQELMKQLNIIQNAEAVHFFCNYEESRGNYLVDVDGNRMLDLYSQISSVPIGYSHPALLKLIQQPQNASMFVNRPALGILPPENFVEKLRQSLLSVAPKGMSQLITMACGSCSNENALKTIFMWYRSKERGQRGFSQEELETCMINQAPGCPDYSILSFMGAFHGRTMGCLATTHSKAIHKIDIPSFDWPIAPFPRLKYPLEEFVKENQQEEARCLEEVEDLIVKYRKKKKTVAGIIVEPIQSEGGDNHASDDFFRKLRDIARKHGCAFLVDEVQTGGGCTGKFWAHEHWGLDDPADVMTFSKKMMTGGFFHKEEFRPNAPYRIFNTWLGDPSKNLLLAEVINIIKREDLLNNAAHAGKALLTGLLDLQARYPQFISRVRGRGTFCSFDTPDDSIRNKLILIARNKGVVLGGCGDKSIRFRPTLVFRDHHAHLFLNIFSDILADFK

| Compound | K inact [1] | Ratio [2] |
| --- | --- | --- |
| N[C@@H]1C=CCC[C@@H]1C(=O)O | 0.03 min⁻¹ | 0.0024 |
| N[C@@H]1C=CC[C@H](C(=O)O)C1 | 0.01 min⁻¹ | 0.0042 |
